From US10045968B2, “Bicyclic compound, production and use thereof” (TOBIRA THERAPEUTICS, INC., priority 2001, dated 2018)

These molecules were tested against T1, human CCR5 (Homo sapiens, UniProt P51681) (assay: Inhibition of [125I]-RANTES binding to CCR5/CHO cells (CCR5 antagonist activity)). Settings: 40 min, test compound 1 μM, 100 pM [125I]-RANTES as ligand, room temperature, read-out: Binding Inhibitory Ratio (%).
T1 construct: expressed in transfected cells; host or cells: CHO-K1 cells, stably transfected with pCKR5 (pcDNA3.1 backbone), Geneticin-selected
T1 sequence (P51681 whole entry): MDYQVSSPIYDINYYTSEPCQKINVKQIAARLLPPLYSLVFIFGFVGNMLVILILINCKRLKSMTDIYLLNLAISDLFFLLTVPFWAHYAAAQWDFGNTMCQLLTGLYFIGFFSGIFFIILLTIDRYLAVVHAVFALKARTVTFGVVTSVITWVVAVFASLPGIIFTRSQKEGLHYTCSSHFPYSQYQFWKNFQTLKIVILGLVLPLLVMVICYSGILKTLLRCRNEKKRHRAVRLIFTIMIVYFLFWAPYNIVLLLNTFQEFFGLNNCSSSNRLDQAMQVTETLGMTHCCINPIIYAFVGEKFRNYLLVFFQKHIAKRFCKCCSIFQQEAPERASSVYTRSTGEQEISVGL
Method: (1) Cloning of Human CCR5 Chemokine Receptor Cloning of CCR5 gene was conducted from human spleen cDNA by PCR method. Using cDNA (0.5 ng) from spleen (Toyobo, QUICK-Clone cDNA) as a genetic template, primer sets prepared by referring to CCR5 gene nucleotide sequence described by Samson et al. (Biochemistry 35 (11), 3362-3367 (1996), i.e., (2) Preparation of Expression Plasmid of Human CCR5 […] The DNA fragments and an expression plasmid for animal cells pcDN A3.1 (Funakoshi), which was previously digested by XbaI and BamHI, were mixed and ligated by DNA Ligation Kit Ver. 2 (Takara Shuzo). Transformation of E. coli JM109 competent cells (Takara Shuzo) gave plasmid pCKR5. (3) Introduction of the Human CCR5 Expression Plasmid into CHO-K1 Cells and Expression Thereof […] The cells were washed with PBS (Lifetech Oriental), centrifuged (1000 rpm, 5 minutes), and resuspended in PBS. The DNA was introduced into the cells using Gene Pulser (BioRad) according to the following conditions. […] The cells were diluted to a concentration of 10^4 cells/ml, and inoculated in 96 well plate (Becton Dickinson), to obtain Geneticin-resistant cells. The Geneticin-resistant cells ware grown in 96 well plate (Becton Dickinson), and CCR5 expressing cells were selected from the resistant cells. Namely, in an assay buffer, (Ham F12 medium containing 0.5% BSA, and 20 mM HEPES (Wako Pure Chemical Ind., pH 7.2)), containing 200 pM [^125I]-RANTES (Amersham) as a ligand, the cells were subjected to binding reaction at room temperature for 40 minutes. The well plate containing the cells was washed with ice-cooled PBS, added with 1M NaOH in an amount of 50 μl/well and stirred. The cells to which the ligand bound specifically, i.e., CCR5/CHO cells, were selected by measurement of radioactivity by γ-counter. (4) Evaluation of Compounds Based on CCR5 Antagonist Activity The CCR5/CHO cells were inoculated in 96 well microplate at a concentration of 5×10^4 cells/well, and grown for 24 hours. After removal of the medium by aspiration, to each well was added an assay buffer containing a test compound (1 μM), and (^125I)/RANTES (Amersham) used as a ligand at a concentration of 100 pM. The mixture was subjected to the reaction at room temperature for 40 minutes. After removal of the assay buffer by aspiration, each well was washed with cooled PBS twice. Then, 200 μl MicroScint 20 (Packerd) was added to each well, and the radioactivity of each well was measured by TopCount (Packard). According to the method above, inhibitory ratios to CCR5 binding of the test compounds were determined.
With `CCCCOCCOc1ccc(-c2ccc3c(c2)C=C(C(=O)Nc2ccc([S+]([O-])Cc4nncn4CCC)cc2)CCCN3CC(C)C)cc1` (single isomer, unassigned; (+)) [Compound 48, (+)-8-[4-(2-butoxyethoxy)phenyl]-1-isobutyl-N-[4-[[(4-propyl-4H-1,2,4-triazol-3-yl)methyl]sulfinyl]phenyl]-1,2,3,4-tetrahydro-1-benzazocine-5-carboxamide] the inhibition at 1 µM was 97%.
With `CCCCOCCOc1ccc(-c2ccc3c(c2)C=C(C(=O)Nc2ccc([S+]([O-])Cc4cncn4CCC)cc2)CCCN3CCC)cc1` (single isomer, unassigned; (-)) [Compound 9, (−)-8-[4-(2-butoxyethoxy)phenyl]-1-propyl-N-[4-[[[1-propylimidazol-5-yl]methyl]sulfinyl]phenyl]-1,2,3,4-tetrahydro-1-benzoazocine-5-carboxamide] the inhibition at 1 µM was 100%.
Molecule `CCCCOCCOc1ccc(-c2ccc3c(c2)C=C(C(=O)Nc2ccc([S+]([O-])Cc4nccn4CCC)cc2)CCCN3CCC)cc1` (single isomer, unassigned; (-)) [Compound 22, (−)-8-[4-(2-butoxyethoxy)phenyl]-1-propyl-N-[4-[[[1-propylimidazol-2-yl]methyl]sulfinyl]phenyl]-1,2,3,4-tetrahydro-1-benzoazocine-5-carboxamide] has an inhibition at 1 µM of 98%.
In the case of `CCCCOCCOc1ccc(-c2ccc3c(c2)C=C(C(=O)Nc2ccc([S+]([O-])Cc4cncn4CCC)cc2)CCCCN3CC(C)C)cc1` (single isomer, unassigned; (-)) [Compound 26, (−)-9-[4-(2-butoxyethoxy)phenyl]-1-isobutyl-N-[4-[[[1-propylimidazol-5-yl]methyl]sulfinyl]phenyl]-2,3,4,5-tetrahydro-1H-1-benzoazonin-6-carboxamide], the inhibition at 1 µM is reported as 100%.
`CCCCOCCOc1ccc(-c2ccc3c(c2)C=C(C(=O)Nc2ccc([S+]([O-])Cc4cncn4CCC)cc2)CCCN3Cc2cnn(C)c2)cc1` (single isomer, unassigned; (-)) [Compound 34, (−)-8-[4-(2-butoxyethoxy)phenyl]-1-((1-methylpyrazol-4-yl)methyl)-N-[4-[[[1-propylimidazol-5-yl]methyl]sulfinyl]phenyl]-1,2,3,4-tetrahydro-1-benzoazocine-5-carboxamide] gave an inhibition at 1 µM of 97%.
Work on `CCCCOCCOc1ccc(-c2ccc3c(c2)C=C(C(=O)Nc2ccc(CN(C)C4CCOCC4)cc2)CCCO3)cc1` [Compound 1, 8-[4-(2-butoxyethoxy)phenyl]-N-[4-[[N-methyl-N-(tetrahydropyran-4-yl)amino]methyl]phenyl]-3,4-dihydro-2H-1-benzoxocin-5-carboxamide] yielded an inhibition at 1 µM of 94%.
`CCCCOCCOc1ccc(-c2ccc3c(c2)C=C(C(=O)Nc2ccc(CN(C)C4CCOCC4)cc2)CCCN3CCC)cc1` [Compound 2, 8-[4-(2-butoxyethoxy)phenyl]-1-propyl-N-[4-[[N-methyl-N-(tetrahydropyran-4-yl)amino]methyl]phenyl]-1,2,3,4-tetrahydro-1-benzazocine-5-carboxamide] gave an inhibition at 1 µM of 96%.
`CCCCOCCOc1ccc(-c2ccc3c(c2)C=C(C(=O)Nc2ccc(SCc4cncn4CCC)cc2)CCCN3CCC)cc1` [Compound 3, 8-[4-(2-butoxyethoxy)phenyl]-1-propyl-N-[4-[[[1-propylimidazol-5-yl]methyl]sulfanyl]phenyl]-1,2,3,4-tetrahydro-1-benzazocine-5-carboxamide] showed an inhibition at 1 µM of 91%.
For `CCCCOCCOc1ccc(-c2ccc3c(c2)C=C(C(=O)Nc2ccc(S(=O)(=O)Cc4cncn4CCC)cc2)CCCN3CCC)cc1` [Compound 5, 8-[4-(2-butoxyethoxy)phenyl]-1-propyl-N-[4-[[[1-propylimidazol-5-yl]methyl]sulfonyl]phenyl]-1,2,3,4-tetrahydro-1-benzazocine-5-carboxamide], the inhibition at 1 µM was 86%.
For `CCCCOCCOc1ccc(-c2ccc3c(c2)C=C(C(=O)Nc2ccc([S+]([O-])Cc4cncn4CCC)cc2)CCCN3CC(C)C)cc1` (centres unmarked) [Compound 7, 8-[4-(2-butoxyethoxy)phenyl]-1-isobutyl-N-[4-[[[1-propyl-1H-imidazol-5-yl]methyl]sulfinyl]phenyl]-1,2,3,4-tetrahydro-1-benzazocine-5-carboxamide], the inhibition at 1 µM was 100%.

Same assay, conditions: test compound 1 μM, 100 pM [125I]-RANTES as ligand, room temperature, 40 minutes
For `CCCCOCCOc1ccc(-c2ccc3c(c2)C=C(C(=O)Nc2ccc([S+]([O-])Cc4nncn4CCC)cc2)CCCN3CCC)cc1` (single isomer, unassigned; (+)) [Compound 53, (+)-8-[4-(2-butoxyethoxy)phenyl]-1-propyl-N-[4-[[(4-propyl-4H-1,2,4-triazol-3-yl)methyl]sulfinyl]phenyl]-1,2,3,4-tetrahydro-1-benzazocin-5-carboxamide], the “Binding Inhibitory Ratio (%)” value was 100%.
In the case of `CCCCOCCOc1ccc(-c2ccc3c(c2)C=C(C(=O)Nc2ccc([S+]([O-])Cc4cncn4CCC)cc2)CCCN3CC(C)C)cc1.CS(=O)(=O)O` (single isomer, unassigned; (-)) [Compound 14, (−)-8-[4-(2-butoxyethoxy)phenyl]-1-isobutyl-N-[4-[[[1-propyl-1H-imidazol-5-yl]methyl]sulfinyl]phenyl]-1,2,3,4-tetrahydro-1-benzoazocine-5-carboxamide methanesulfonate], the “Binding Inhibitory Ratio (%)” value is reported as 98%.
For `C=C(C)CN1CCCC(C(=O)Nc2ccc([S+]([O-])Cc3cncn3CCC)cc2)=Cc2cc(-c3ccc(OCCOCCCC)cc3)ccc21` (single isomer, unassigned; (-)) [Compound 23, (−)-8-[4-(2-butoxyethoxy)phenyl]-1-(2-methyl-2-propen-1-yl)-N-[4-[[[1-propylimidazol-5-yl]methyl]sulfinyl]phenyl]-1,2,3,4-tetrahydro-1-benzoazocine-5-carboxylic], the “Binding Inhibitory Ratio (%)” value was 97%.
With `CCCCOCCOc1ccc(-c2ccc3c(c2)C=C(C(=O)Nc2ccc([S+]([O-])Cc4nncn4CCC)cc2)CCCN3CC(C)C)cc1` (single isomer, unassigned; (-)) [Compound 49, (−)-8-[4-(2-butoxyethoxy)phenyl]-1-isobutyl-N-[4-[[(4-propyl-4H-1,2,4-triazol-3-yl)methyl]sulfinyl]phenyl]-1,2,3,4-tetrahydro-1-benzazocine-5-carboxamide] the “Binding Inhibitory Ratio (%)” value was 91%.
For `CCCCOCCOc1ccc(-c2ccc3c(c2)C=C(C(=O)Nc2ccc([S+]([O-])Cc4nncn4CCC)cc2)CCCN3CCC)cc1` (single isomer, unassigned; (-)) [Compound 52, (−)-8-[4-(2-butoxyethoxy)phenyl]-1-propyl-N-[4-[[[4-propyl-4H-1,2,4-triazol-3-yl]methyl]sulfinyl]phenyl]-1,2,3,4-tetrahydro-1-benzazocine-5-carboxamide], the “Binding Inhibitory Ratio (%)” value was 96%.
In the case of `CCCCOCCOc1ccc(-c2ccc3c(c2)C=C(C(=O)Nc2ccc([S+]([O-])Cc4cncn4CCC)cc2)CCCN3CCC)cc1` (centres unmarked) [Compound 4, 8-[4-(2-butoxyethoxy)phenyl]-1-propyl-N-[4-[[[1-propylimidazol-5-yl]methyl]sulfinyl]phenyl]-1,2,3,4-tetrahydro-1-benzazocine-5-carboxamide], the “Binding Inhibitory Ratio (%)” value is reported as 100%.
In the case of `CCCCOCCOc1ccc(-c2ccc3c(c2)C=C(C(=O)Nc2ccc(SCc4cncn4CCC)cc2)CCCN3CC(C)C)cc1` [Compound 6], the “Binding Inhibitory Ratio (%)” value is reported as 98%.
